In patent US7381824B2 (Agouron Pharmaceuticals, Inc., priority 2003, dated 2008):
Where two headings read alike, the source gives them in different places.

Legend:
[1] = molecular target: T1, human vascular endothelial growth factor receptor 2 (VEGF-R2) (Homo sapiens, UniProt P35968, DEL940-989/E990V); test: VEGF-R2 coupled spectrophotometric assay (FLVK, unphosphorylated VEGF-R2D50); format: biochemical
T1 construct: VEGF-R2D50 contains residues 806-939 and 990-1171; made in house; host or cells: baculovirus/insect cell system
Method in brief: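 Unphosphorylated VEGF-R2D50 (residues 806-939/990-1171, E990V; baculovirus-expressed), 5 to 40 nM, with 20 mM poly(E4Y1), 3 mM ATP, 60 mM MgCl2 and 2 mM MnCl2 in 200 mM HEPES pH 7.5. ADP formation coupled via PK/LDH to NADH oxidation (A340). Ki fitted by Morrison equation; % inhibition at 50 nM from linear regression of absorbance versus time.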

[2] = test system: human umbilical vein endothelial cells (HUVEC); test: HUVEC+VEGF proliferation assay; format: cell-based; settings: Homo sapiens; VEGF-stimulated HUVEC proliferation, MTT, 72 hours
Experimental: HUVEC+VEGF Proliferation Assay
This assay determines the ability of a test compound to inhibit the growth factor-stimulated proliferation of human umbilical vein endothelial cells (“HUVEC”). HUVEC cells (passage 3-4, Clonetics, Corp.) were thawed into EGM2 culture medium (Clonetics Corp) in T75 flasks. Fresh EGM2 medium was added to the flasks 24 hours later. Four or five days later, cells were exposed to another culture medium (F12K medium supplemented with 10% fetal bovine serum (FBS), […] endothelial cell growth supplement (ECGS), and 0.1 mg/mL heparin). Exponentially-growing HUVEC cells were used in experiments thereafter. Ten to twelve thousand HUVEC cells were plated in 96-well dishes in […] of rich, culture medium (described above). The cells were allowed to attach for 24 hours in this medium. The medium was then removed by aspiration and […] of starvation media (F12K+1% FBS) was added to each well. After 24 hours, […] of test agent dissolved in 1% DMSO in starvation medium or this vehicle alone was added into each treatment well; the final DMSO concentration was 0.1%. One hour later, […] of VEGF (30 ng/mL) in starvation media was added to all wells except those containing untreated controls; the final VEGF concentration was 6 ng/mL. Cellular proliferation was quantified 72 hours later by MTT dye reduction, at which time cells were exposed for 4 hours MTT (Promega Corp.). Dye reduction was stopped by addition of a stop solution (Promega Corp.) and absorbance at 595 nm was determined on a 96-well spectrophotometer plate reader.

human FGF-R1 = molecular target: T2, human FGF-R1 (Homo sapiens, UniProt P11362, C488A/C584S/L457V); test: FGF-R spectrophotometric assay; format: biochemical
T2 construct: starting from the endogenous methionine residue 456 to glutamate 766; made in house; host or cells: baculovirus vector expression system
Experimental: The intracellular kinase domain of human FGF-R1 was expressed using the baculovirus vector expression system starting from the endogenous methionine residue 456 to glutamate 766, according to the residue numbering system of Mohammadi et al., Mol. Cell. Biol., 16, 977-989 (1996). In addition, the construct also has the following 3 amino acid substitutions: L457V, C488A, and C584S.
The spectrophotometric assay was carried out as described above for VEGF-R2, except for the following changes in concentration: FGF-R=50 nM, ATP=2 mM, and poly(E4Y1)=15 mM.

[3] = unphosphorylated VEGF-R2D50 (FLVK)

T1 sequence (P35968 with tags, fused parts or gaps DEL940-989/E990V limits assumed): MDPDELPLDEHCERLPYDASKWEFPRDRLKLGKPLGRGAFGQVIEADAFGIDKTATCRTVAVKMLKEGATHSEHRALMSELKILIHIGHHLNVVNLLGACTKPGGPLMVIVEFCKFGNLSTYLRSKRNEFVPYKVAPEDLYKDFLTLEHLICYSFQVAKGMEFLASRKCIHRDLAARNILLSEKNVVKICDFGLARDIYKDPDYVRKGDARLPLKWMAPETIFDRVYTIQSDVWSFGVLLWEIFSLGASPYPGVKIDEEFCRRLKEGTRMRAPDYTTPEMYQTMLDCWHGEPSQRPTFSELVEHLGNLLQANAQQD
T2 sequence (P11362 456-766 L457V/C488A/C584S): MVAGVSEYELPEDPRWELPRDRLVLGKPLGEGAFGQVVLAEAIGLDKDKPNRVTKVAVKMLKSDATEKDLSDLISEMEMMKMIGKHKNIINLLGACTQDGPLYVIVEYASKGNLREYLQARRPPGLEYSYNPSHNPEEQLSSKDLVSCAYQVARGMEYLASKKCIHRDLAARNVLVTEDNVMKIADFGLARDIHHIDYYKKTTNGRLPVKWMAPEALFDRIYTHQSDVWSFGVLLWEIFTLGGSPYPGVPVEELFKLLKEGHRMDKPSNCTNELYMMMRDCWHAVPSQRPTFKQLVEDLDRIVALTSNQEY

SMILES | Ki [1, 3] [nM] | inhibition at 1 µM [1] [%] | inhibition at 1 µM (human FGF-R1) [%] | Ki [1] [nM] | IC50 [2] [nM]
COc1ccc2c(Oc3ccc4c(C(=O)NCCCN(C)C)c(C)sc4c3)ccnc2c1 [Example 51, N-[3-(dimethylamino)propyl]-6-[(7-methoxyquinolin-4-yl)oxy]-2-methyl-1-benzothiophene-3-carboxamide] | > 10 |  |  |  | 1 to 10
COc1ccc2c(Oc3ccc4c(C(=O)NCc5ccccn5)c(C)oc4c3)ccnc2c1 [Example 66, 6-[(7-methoxyquinolin-4-yl)oxy]-2-methyl-N-(pyridin-2-ylmethyl)-1-benzofuran-3-carboxamide] | > 10 |  |  |  | 1 to 10
COc1ccc2c(Oc3ccc4c(C(=O)NC[C@H]5CCCO5)c(C)oc4c3)ccnc2c1 [Example 84, 6-[(7-methoxyquinolin-4-yl)oxy]-2-methyl-N-[(2R)tetrahydrofuran-2-ylmethyl]-1-benzofuran-3-carboxamide] | 1 to 10 |  |  |  | 1 to 10
CCOCCNC(=O)c1c(C)oc2cc(Oc3ccnc4cc(OC)ccc34)ccc12 [Example 86, 6-[(7-methoxyquinolin-4-yl)oxy]-2-methyl-N-[ethoxy-ethyl]-1-benzofuran-3-carboxamide] | 1 to 10 |  |  |  | 1 to 10
COCCNC(=O)c1c(C)oc2cc(Oc3ccnc4cc(OC)ccc34)ccc12 [Example 88, N-(2-methoxyethyl)-6-[(7-methoxyquinolin-4-yl)oxy]-2-methyl-1-benzofuran-3-carboxamide] | 1 to 10 |  |  |  | 1 to 10
COc1ccc2c(Oc3ccc4cc(C)oc4c3)ccnc2c1 [Example 125, 7-Methoxy-4-(2-methyl-benzofuran-6-yloxy)-quinoline] |  | 68 | 32 |  | 
Cc1cc2ccc(Oc3ccnc4cc(OCCN5CCOCC5)ccc34)cc2o1 [Example 126, 4-(2-Methyl-benzofuran-6-yloxy)-7-(2-morpholin-4-yl-ethoxy)-quinoline] | > 10 |  | 38 | 32 | 

The next lines start with results.

Ki [1, 3] [nM] | inhibition at 1 µM [1] [%] | inhibition at 1 µM (human FGF-R1) [%] | Ki [1] [nM] | SMILES | IC50 [2] [nM]
1 to 10 |  |  |  | COc1ccc2c(Oc3ccc4c(C(=O)NC5CCCCC5)c(C)sc4c3)ccnc2c1 [Example 52, N-cyclohexyl-6-[(7-methoxyquinolin-4-yl)oxy]-2-methyl-1-benzothiophene-3-carboxamide] | 1 to 10
1 to 10 |  |  |  | COc1ccc2c(Oc3ccc4c(C(=O)NC5CCCC5)c(C)sc4c3)ccnc2c1 [Example 53, N-cyclopentyl-6-[(7-methoxyquinolin-4-yl)oxy]-2-methyl-1-benzothiophene-3-carboxamide] | 1 to 10
1 to 10 |  |  |  | COc1ccc2c(Oc3ccc4c(C(=O)NCCCO)c(C)oc4c3)ccnc2c1 [Example 67, N-(3-hydroxypropyl)-6-[(7-methoxyquinolin-4-yl)oxy]-2-methyl-1-benzofuran-3-carboxamide] | 1 to 10
1 to 10 |  |  |  | Cc1oc2cc(Oc3ccnc4cc(OC(F)(F)F)ccc34)ccc2c1C(=O)NC1CC1 [Example 73, N-cyclopropyl-2-methyl-6-{[7-(trifluoromethoxy)quinolin-4-yl]oxy}-1-benzofuran-3-carboxamide] | 1 to 10
